Consider 3 compounds from patent EP0498941A2, “Peptide skeletal muscle relaxants” (BOC Health Care, Inc., priority 1991, dated 1992).

In the series the test system is neuromuscular junction. The series can be described thus: Rabbit paw twitch analysis (neuromuscular blocking activity). The series is classed as in vivo, Male New Zealand white rabbits. The source says: In a large series of similar relaxants, the rabbit dose is typically 125% of that in mice. The mechanism of action was also confirmed in this test by observing train-of-four and tetanus fade, post-tetanic potentiation of single twitches and administration of the anticholinesterase drug neostigmine which reverses the relaxation. Reversibility, rapid onset and short duration are important factors to the anesthesiologist.
The following is a brief description of the methodologies used in rabbits to describe neuromuscular blocking activity of the subject compounds. A more detailed description of these methods is presented in "Microcomputer Use in Measuring Onset, Duration, and Recovery from Non-Depolarizing Skeletal Muscle Relaxants in Rabbits", P.D. Thut et al., Drug development Research 5:182, 1985.
Male New Zealand white rabbits weighing between 2.5 and 3.4 kg were anesthetized with pentobarbital (30 mg/kg) and placed on their backs upon a 40°C water filled temperature regulation pad. Following tracheostomy, the lungs were mechanically ventilated at 28 breaths per minute with room air, using an open system delivering 200 ml/stroke. This ventilation maintained pCO₂ at 38 […] and pO₂ at 85 mmHg. Direct arterial blood pressure was measured from the right common carotid artery. The test compounds were administered through a cannula placed in the marginal ear vein. Each foreleg was taped to a cushioned plate held in a femur clamp attached to the spinal board rack. The left centeral digit of each paw was connected to a force displacement transducer for measurement of muscle tension. Nerve stimulation was provided by pairs of pin electrodes placed on both sides of the ulnar nerve at the elbow of both forearms. The right ulnar nerve was stimulated at 1 Hz, 1 pps for .5 msec duration. The left ulnar nerve was similarly stimulated, every 15 seconds, with addition of interspersed trains-of-four and tetanizing stimuli. The parameters reported in Table II are: potency (ED90), which is the dose required to depress twitch tension to 10% of its control value; onset (T85%), which is the time from injection until 85% of the maximal drug effect is achieved; duration, which is the time from injection until the train-of-four has recovered to 75%; blood pressure (BP), which is the percentage change of pre-drug blood pressure; and heart rate (HR), which is the percentage change from pre-drug heart rate.

On to `COc1ccc(CC2c3cc(OC)c(OC)cc3CC[N+]2(C)CCC(=O)OCCCCCOC(=O)CC[N+]2(C)CCc3cc(OC)c(OC)cc3C2Cc2ccc(OC)c(OC)c2)cc1OC` (stereo not shown) [atracurium], for which, where the note is “Oryctolagus cuniculus, iv, potency: dose required to depress twitch tension to 10% of its control value, pentobarbital-anesthetized rabbits, marginal ear vein”, the ED90 was determined as 0.05 mg/kg. Also, the T85% (onset: time from injection until 85% of the maximal drug effect is achieved, equi-efficacious dose) was determined as 126.90 s. Also, where the note is “time from injection until the train-of-four has recovered to 75%, equi-efficacious dose”, the Duration is 14.30 min.
Regarding `CC(=O)O[C@H]1C[C@@H]2CC[C@@H]3[C@H](CC[C@@]4(C)[C@H]3C[C@H]([N+]3(C)CCCCC3)[C@@H]4OC(C)=O)[C@@]2(C)C[C@@H]1[N+]1(C)CCCCC1` [pancuronium], under “rabbit, in vivo”, the BP was found to be 2.70 % change, the Duration came out at 35.50 min, the ED9O was 0.02 mg/kg and the HR turned out to be 0.00 % change. The T85% (rabbit, in vivo) came to 147.50 s.
In the same order, the values of `CC(=O)O[C@H]1C[C@@H]2CC[C@@H]3[C@H](CC[C@@]4(C)[C@H]3C[C@H]([N+]3(C)CCCCC3)[C@@H]4OC(C)=O)[C@@]2(C)C[C@@H]1N1CCCCC1` [vecuronium] are 1.10 % change, 16.80 min, 0.02 mg/kg, “- 9.90 % change” and 97.30 s.
